In ChEMBL document CHEMBL1141619, “Discovery of novel inhibitors of 11beta-hydroxysteroid dehydrogenase type 1 by docking and pharmacophore modeling” (Bioorg Med Chem Lett, 2008) one finds inhibition and IC50 data, which are given here for six compounds.

One may read the inhibition as the change of the read-out against control, counted positive when it falls. For orientation: IC50 means the concentration at which inhibition is half-maximal. A low value points to inhibition by little substance.

The target of test [1] is 11-beta-hydroxysteroid dehydrogenase 1 (Mus musculus) (UniProt P50172). The test is described as follows: Inhibition of mouse 11beta-HSD1 at 10 uM.
Sequence of 11-beta-hydroxysteroid dehydrogenase 1 (Mus musculus) (P50172 whole entry, looked up): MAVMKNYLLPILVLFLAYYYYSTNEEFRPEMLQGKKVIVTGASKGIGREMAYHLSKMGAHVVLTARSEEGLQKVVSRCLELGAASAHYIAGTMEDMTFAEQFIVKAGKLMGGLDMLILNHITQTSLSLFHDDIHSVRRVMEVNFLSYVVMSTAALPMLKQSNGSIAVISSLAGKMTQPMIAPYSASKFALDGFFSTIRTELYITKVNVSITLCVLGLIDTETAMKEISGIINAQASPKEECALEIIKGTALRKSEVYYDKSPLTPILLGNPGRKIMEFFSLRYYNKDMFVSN
Test [2] deals with T1, 11-beta-hydroxysteroid dehydrogenase type 2 (Mus musculus) (UniProt P51661).
T1 sequence (whole entry): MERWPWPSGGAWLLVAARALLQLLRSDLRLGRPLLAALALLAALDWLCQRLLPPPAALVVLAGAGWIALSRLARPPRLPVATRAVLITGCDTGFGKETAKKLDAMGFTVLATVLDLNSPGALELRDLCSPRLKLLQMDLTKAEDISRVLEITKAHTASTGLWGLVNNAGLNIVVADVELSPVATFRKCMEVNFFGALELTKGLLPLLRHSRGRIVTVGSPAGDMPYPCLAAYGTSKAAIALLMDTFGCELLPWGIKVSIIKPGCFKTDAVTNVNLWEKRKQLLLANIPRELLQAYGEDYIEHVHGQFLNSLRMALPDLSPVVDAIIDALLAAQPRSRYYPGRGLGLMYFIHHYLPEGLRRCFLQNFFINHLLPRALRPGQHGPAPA
The test is described as follows: Inhibition of mouse 11beta-HSD2 at 10 uM.

In test [3] the target is 11-beta-hydroxysteroid dehydrogenase 1 (Mus musculus, UniProt P50172). The test is described as follows: Inhibition of mouse 11beta-HSD1.
Sequence of 11-beta-hydroxysteroid dehydrogenase 1 (P50172 whole entry): as the sequence (P50172 whole entry, looked up) above

As to `Cc1ccc(C(=O)COC(=O)C(Cc2ccccc2)N2C(=O)c3ccccc3C2=O)cc1` (configuration not stated), the inhibition in test [1] came out at 60%; in test [2], 3.4%.
Consider `O=C(CN1C(=O)C2C3c4ccccc4C(c4ccccc43)C2C1=O)Nc1cccc(Cl)c1` (configuration not stated), for which, in test [3], the IC50 is 12.5 µM. The same compound gave an inhibition in test [2] of 2.2%.
Turning to `O=C(CSc1nc2ccc(NC(=O)c3ccccc3Br)cc2s1)NCCc1ccccc1`, half-maximal inhibition in test [3] (IC50) was put at 2.09 µM. Also, in test [2], the inhibition amounted to 0%.
The matching figures for `CC(C)COC(=O)c1ccc(NC(=O)c2ccc3c(c2)-c2ccccc2C3=O)cc1`: 3.6 µM and 3.7%.
Consider `Cc1cc(NS(=O)(=O)c2ccc(NC(=O)c3ccc(C(=O)C(=O)c4ccccc4)cc3)cc2)nc(C)n1`, for which the midpoint of inhibition in test [3], the IC50, lay at 0.48 µM. The compound also showed an inhibition in test [2] of 9.1%.
`Cc1ccc(S(=O)(=O)N(CC(=O)N2CCCCCC2)c2cc(Cl)ccc2C)cc1`: half-maximal inhibition in test [3] (IC50) was put at 6.1 µM. In test [2], this compound came in with an inhibition of 0.8%.
